Experimental data published in patent US20140262287A1, “ENVIRONMENTALLY FRIENDLY QUATERNARY SALTS OF AMINES AND THEIR USE AS TEMPORARY AND/OR PERMANENT CLAY STABILIZERS AND METHODS FOR MAKING AND USING SAME” (CLEARWATER INTERNATIONAL, LLC, priority 2013, published 2014).

Assays:
[1] = system: Fathead Minnow (pimephales promelas); assay: Acute toxicity minnow survival test; type: in vivo; settings: for LC50: acute toxicity survival, Examples 4 and 5 range-finding and definitive test, TMAC and Example 3 range-finding test only; for toxicity to minnows compared with TMAC / prior art: comparison in words, data of Table II
Procedure: As a consequence, the “definitive” test gave a more precise LC50 value. LC50 was determined using a log-normal transformation coupled with linear regression between the bracketing no observed effect concentration (NOEC) and lowest observed effect concentration (LOEC). Both the range finding and definitive tests were run on Example 4 and Example 5. Only the ranging finding test was run for TMAC and Example 3.

[2] = Water release clay stabilization test; set-up: unit not given here; settings: 100 mL of 1 wt. % Wyoming Bentonite clay solution
Procedure: (§1) Clay Solution Preparation
To make 1 wt. % clay solution, 23 g of Wyoming Bentonite Clay and 2277 g of distilled water were added to a bottle and shaken until all the clay was dissolved. […]
Measure 100 mL of clay solution into 6 graduated cylinders. […] The addition of the clay stabilizers at 0.1 mL, 0.2 mL, 0.4 mL, 0.6 mL, 0.8 mL, and 1.0 mL in 100 mL of a clay solution corresponds to 1, 2, 4, 6, 8 and 10 Gallons per Thousand (or gpt). Invert the cylinders 20 times. Start timer and record separation time and clay coagulation. Record clay deposition, swelling and water release.

[3] = Capillary suction timer clay stabilization test; settings: 2 g Bentonite in 100 g solution
Procedure: A rock sample was placed in a Gyral Grinder and grinding of the rock sample was begun. The rock sample was ground for 1 hour using a timer. The ground rock sample was placed into a 200-mesh sieve. The aggregate that passed through the sieve was placed in a pan for testing and placed to the side.
Using a 100 mL volumetric flask, a solution was prepared that will be used to mix with the rock sample. At least one solution should be prepared as the sample with straight tap water will be used as a reference blank. 100 g of solution was added to a 250 mL beaker equipped with a magnetic stir bar. A specified amount of each shale inhibitor was added to the beaker. The beaker was placed on stir plate and stirring was begun at a speed at which a vortex reaches the bottom of the beaker. 2 g of the untreated Bentonite sample was added and a timer was set for 5 minutes. After 5 minutes, the stir plate was turned off, the solution was poured into a 100 mL graduated cylinder, and a timer was set for 15 minutes. After 15 minutes, the mixture was poured back into the beaker, the beaker was placed on the magnetic stir plate and stirring was restarted on the plate. Wait until the vortex returned and the clay had become dispersed.
A Venture Innovations capillary suction timer (CST) from Venture Chemicals, Inc. in Lafayette, La. was used in the tests. Before each test, the test head, filter paper, and stainless steel funnel were cleaned and dried. Make sure the cable from the test head was plugged into the control box and the reading on the control box display was reset to zero. A piece of 7×9 cm CST filter paper from Venture Innovations Inc. (part no. IFP-9053) was placed on the test head with the stainless steel probes facing down. The stainless steel funnel was fitted into the test head.
Using a 5-mL syringe, 5-mL of sample was withdrawn from the vortex. Consecutive samples were removed from the same position in the vortex, where the previous sample was taken. A 5 mL sample was charged into the stainless steel funnel. The 5 mL sample charge was repeated twice more. Instrument started automatically when a beep sounds from the control box. When this beep sounded, the timer started. […]

[4] = Clay stabilization test (water separation from 1% clay solution); settings: dosage 0.5 (wt. %/100 mL); 60 minutes; 100 mL of 1% clay solution; (Top)/(Middle) printed in cell
Procedure: as §1
To make 100 mL of a clay solution, measure 1 g of Cream Bentonite Clay or Weatherford Bentonite Clay material. Add 99 g of distilled water and shake bottle until all the clay is dissolved.
Measure 100 ml of clay solution in a graduated cylinder. Shake 10 times. Record separation time and clay precipitation.
Measure 100 mL of clay solution in a graduated cylinder and add 0.5 mL of the desired clay stabilizer. Shake 10 times. Record separation time and clay coagulation. Record clay deposition, swelling and water release.

[5] = Linear Swell after 23 hours; 6000 ppm; Bentonite pellet
Procedure: The Linear Swell Meter was OFITE 115V Dynamic Linear Swell Meter Model #150-80. 14 g of Bentonite was added to a pelletizercompactor and 10,000 psi pressure was applied for 30 minutes. The pellet was removed from the compactor. Ensure all components of the Linear Swell Meter are clean: transfer stand, cap for wafer tube, bottom plate, magnetic stir bar, Teflon washer, and cup. With both the screens in the linear swell meter cell, the swell meter was zeroed out by clicking on the specific cell(s) to be zeroed out and clicked “apply”. One of the screens from the cell was removed and the pellet was added on top of the other screen. The other screen was put on top of the pellet. The transfer stand was gently placed on top of the pellet. The cell was placed on the magnetic stir plate underneath the linear variable differential transformer (LVDT) to make sure that the spindle was directly centered on top of the transfer stand. The fluid to be tested was poured through the hole on the cap for the wafer tube, the box was checked to start the cell and “apply” was clicked. Doing this will start the test for the specific cell.

| Compound | LC50 [1] | toxicity to minnows compared with TMAC / prior art [1] | WR (water release at 60 minutes) 2.0 gpt [2] | WR (water release at 60 minutes) 4.0 gpt [2] | WR (water release at 60 minutes) 6.0 gpt [2] | WR (water release at 60 minutes) 8.0 gpt [2] | WR (water release at 60 minutes) 10.0 gpt [2] | CST Time ([3]; CST concentration 4000 ppm) | Final Water (mL) [4] | % Swell [5] | CST Time ([3]; CST concentration 5000 ppm) | CST Time ([3]; CST concentration 6000 ppm) |
| --- | --- | --- | --- | --- | --- | --- | --- | --- | --- | --- | --- | --- |
| C[N+](C)(C)C.[Cl-] [tetramethylammonium chloride, reference compound] | 737 µg/mL | – | – | – | – | – | – | – | – | – | – | – |
| OCC[N+](CCO)(CCO)Cc1ccccc1.[Cl-] [Example 4] | 3160 µg/mL | much less toxic than TMAC | 27 | 33 | 34 | 33 | 32 | 18 s | – | – | – | – |
| C[N+](C)(C)CCO.[Cl-] [Choline Chloride, reference compound] | – | – | – | – | – | – | – | – | 27 mL/60 minutes (Top) | 88.9% | – | – |
| CCOS(=O)(=O)[O-].CC[N+](CCO)(CCO)CCO [Example 5] | 6030 µg/mL | much less toxic than TMAC | 2 | 9 | 22 | 26 | 31 | 90 s | 20 mL/60 minutes (Middle) | – | 68 s | 92 s |
